Experimental data reported in US7713994B2 (Wyeth LLC, priority 2005, dated 2010).
Read-outs that look alike come from different tables or passages of the source.

Experiments:
cyclin B/CDK1 enzyme = target: T1, cyclin B/CDK1 enzyme (Homo sapiens, UniProt P06493); test: CDK1 ELISA kinase assay (phospho-Rb ser 795 detection); type: biochemical
T1 construct: purchased New England BioLabs; host or cells: Sf9 insect cells, recombinant baculovirus
Summary of the method: (§1)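 Sf9-derived cyclin/CDK, 200 μM ATP, immobilized GST-Rb; 30° C/1 h. Detection: phospho-Ser795 Ab, HRP, TMB, OD450.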

HCT-116 = test: Cytotoxicity assay (SRB), HCT-116; type: cell-based; conditions: read-out: In Vitro Cellular Activity IC50 HCT116
Summary of the method: (§2)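 Seeding: BT474 12000, HCT-116 4000, LoVo 6000, MCF-7 6000 cells/well; overnight attachment, 37 °C, 7% CO2. Drug exposure 3 d (BT474 6 d), RPMI 1640 + 5% FBS. Readout: TCA fix, 0.4% SRB, Tris solubilisation, A540.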

MCF-7 = test: Cytotoxicity assay (SRB), MCF-7; type: cell-based; conditions: read-out: In Vitro Cellular Activity IC50 MCF-7
Summary of the method: as §2

cyclin D1/cdk 4 enzyme = target: T2, cyclin D1/cdk 4 enzyme (Homo sapiens, UniProt P11802); test: CDK4 ELISA kinase assay (phospho-Rb ser 795 detection); type: biochemical
T2 construct: made in house; host or cells: Sf9 insect cells, recombinant baculovirus
T2 sequence (P11802 whole entry, species assumed): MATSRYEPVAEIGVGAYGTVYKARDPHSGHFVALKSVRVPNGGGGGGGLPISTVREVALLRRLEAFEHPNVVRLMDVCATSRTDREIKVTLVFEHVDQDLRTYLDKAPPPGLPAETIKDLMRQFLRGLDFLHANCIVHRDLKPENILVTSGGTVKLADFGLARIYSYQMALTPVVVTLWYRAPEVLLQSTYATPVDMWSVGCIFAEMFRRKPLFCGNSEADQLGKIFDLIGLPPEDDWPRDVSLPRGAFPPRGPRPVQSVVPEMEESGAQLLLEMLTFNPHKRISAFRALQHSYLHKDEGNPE
T2 sequence (P24385 whole entry partner, species assumed): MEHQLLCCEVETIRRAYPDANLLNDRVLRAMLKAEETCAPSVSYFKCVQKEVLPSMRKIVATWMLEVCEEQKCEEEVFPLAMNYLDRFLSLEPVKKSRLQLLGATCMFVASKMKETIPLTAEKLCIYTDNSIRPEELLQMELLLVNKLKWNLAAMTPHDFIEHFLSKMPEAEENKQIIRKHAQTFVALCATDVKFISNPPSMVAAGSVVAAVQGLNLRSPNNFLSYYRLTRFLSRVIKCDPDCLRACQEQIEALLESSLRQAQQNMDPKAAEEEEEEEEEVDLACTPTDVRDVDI
Summary of the method: as §1

BT474 = test: Cytotoxicity assay (SRB), BT474; type: cell-based; conditions: read-out: In Vitro Cellular Activity IC50 BT474
Summary of the method: as §2

cyclin E/CDK2 enzyme = target: T3, cyclin E/CDK2 enzyme (Homo sapiens, UniProt P24941); test: CDK2 ELISA kinase assay (phospho-Rb ser 795 detection); type: biochemical
T3 construct: made in house; host or cells: Sf9 insect cells, recombinant baculovirus
Summary of the method: as §1

LoVo = test: Cytotoxicity assay (SRB), LoVo; type: cell-based; conditions: read-out: In Vitro Cellular Activity IC50 LOVO
Summary of the method: as §2

[1] = In Vitro Enzyme Assays, read-out: CDK1 IC50
[2] = Homo sapiens, HCT-116, 72 h, HCT116 cells, 3 days, SRB
[3] = Homo sapiens, MCF7, 72 h, MCF-7 cells, 3 days, SRB
[4] = In Vitro Enzyme Assays, 200 μM ATP, read-out: CDK4 IC50
[5] = Homo sapiens, BT-474, 144 h, BT474 cells, 6 days, SRB
[6] = In Vitro Enzyme Assays, read-out: CDK2 IC50
[7] = Homo sapiens, LoVo, 72 h, LoVo cells, 3 days, SRB
[8] = In Vitro Enzyme Assay, cyclin B/CDK1, read-out: CDK1 IC50
[9] = In Vitro Enzyme Assay, cyclin D1/cdk 4, read-out: CDK4 IC50
[10] = In Vitro Enzyme Assay, cyclin E/CDK2, read-out: CDK2 IC50
[11] = Homo sapiens, HCT-116, 72 h, HCT116 cells, SRB, three days
[12] = Homo sapiens, MCF7, 72 h, MCF-7 cells, SRB, three days
[13] = Homo sapiens, BT-474, 144 h, BT474 cells, SRB, 6 days
[14] = Homo sapiens, LoVo, 72 h, LoVo cells, SRB, three days

T1 sequence (P06493 whole entry): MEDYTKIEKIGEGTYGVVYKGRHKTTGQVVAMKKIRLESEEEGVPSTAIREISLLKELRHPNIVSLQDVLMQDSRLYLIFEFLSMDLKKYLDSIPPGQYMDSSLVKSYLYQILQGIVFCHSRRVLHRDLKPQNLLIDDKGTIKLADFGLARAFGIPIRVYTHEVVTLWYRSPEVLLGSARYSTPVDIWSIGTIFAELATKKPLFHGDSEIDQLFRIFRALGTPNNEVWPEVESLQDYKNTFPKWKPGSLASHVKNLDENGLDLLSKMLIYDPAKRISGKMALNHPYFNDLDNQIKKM
T1 sequence (P14635 whole entry partner): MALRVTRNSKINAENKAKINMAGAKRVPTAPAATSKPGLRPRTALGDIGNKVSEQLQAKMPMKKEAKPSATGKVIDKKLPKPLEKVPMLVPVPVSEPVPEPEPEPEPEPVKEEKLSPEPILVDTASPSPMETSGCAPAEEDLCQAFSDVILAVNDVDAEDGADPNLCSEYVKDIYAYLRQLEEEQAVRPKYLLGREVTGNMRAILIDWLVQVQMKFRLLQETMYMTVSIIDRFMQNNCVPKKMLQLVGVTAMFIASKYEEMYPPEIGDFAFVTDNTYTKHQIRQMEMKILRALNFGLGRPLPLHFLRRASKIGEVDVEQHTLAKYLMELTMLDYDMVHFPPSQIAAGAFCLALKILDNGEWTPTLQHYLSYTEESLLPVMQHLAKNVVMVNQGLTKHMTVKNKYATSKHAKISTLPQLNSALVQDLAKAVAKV

| Compound | IC50 (cyclin B/CDK1 enzyme; [1]) [µM] | IC50 (HCT-116; [2]) [µM] | IC50 (MCF-7; [3]) [µM] | IC50 (cyclin D1/cdk 4 enzyme; [4]) [µM] | IC50 (BT474; [5]) [µM] | IC50 (cyclin E/CDK2 enzyme; [6]) [µM] | IC50 (LoVo; [7]) [µM] | IC50 (cyclin B/CDK1 enzyme; [8]) [µM] | IC50 (cyclin D1/cdk 4 enzyme; [9]) [µM] | IC50 (cyclin E/CDK2 enzyme; [10]) [µM] | further results |
| --- | --- | --- | --- | --- | --- | --- | --- | --- | --- | --- | --- |
| CCN1CCN(c2ccc(N/C=C3\C(=O)NC(=O)c4ccc(I)cc43)cn2)CC1 [Example 414, (4Z)-4-({[6-(4-Ethylpiperazin-1-yl)pyridin-3-yl]amino}methylene)-6-iodoisoquinoline-1,3(2H,4H)-dione] | > 50 | 2.4 | 6 | 0.5 | 6.2 | > 50 | 6.2 |  |  |  |  |
| CC(C)(C)c1ccc2c(c1)/C(=C/NCc1cc(O)c(-c3ccoc3)cc1F)C(=O)NC2=O [Example 534, 6-tert-Butyl-4-[(2-fluoro-4-furan-3-yl-5-hydroxy-benzylamino)-methylene]-4H-isoquinoline-1,3-dione] |  | 1.6 | 2.6 |  | 0.73 |  | 1.2 | > 50 | 0.09 | > 50 |  |
| CN1CCN(c2ccc(NC=C3C(=O)NC(=O)c4ccc(-c5ccc(C=CC(=O)O)cc5)cc43)cc2)CC1 [Example 698, 3-[4-(4-{[4-(4-Methyl-piperazin-1-yl)-phenylamino]-methylene}-1,3-dioxo-1,2,3,4-tetrahydro-isoquinolin-6-yl)-phenyl]-acrylic acid] |  | 46.3 | > 50 |  | 48.1 |  | > 50 | > 50 | 0.28 | > 50 |  |
| COc1ccc(NC=C2C(=O)NCc3cc(-c4cc[nH]c4)ccc32)cc1 [Example 850, 4-[(4-Methoxy-phenylamino)-methylene]-7-(1H-pyrrol-3-yl)-1,4-dihydro-2H-isoquinolin-3-one] |  | 16 | > 50 |  | 46.5 |  | 24.2 | > 50 | > 50 | 19.7 |  |
| O=C1NC(=O)c2ccc(Br)cc2/C1=C/Nc1ccc(CN2CCC(O)CC2)cc1 [compound 75] | > 50 |  |  | 0.29 |  | 7.2 |  |  |  |  | IC50 (HCT-116; [11]): 5.8 µM; IC50 (MCF-7; [12]): 4.3 µM; IC50 (BT474; [13]): 9.7 µM; IC50 (LoVo; [14]): 6 µM |
| C=CC(=O)Nc1ccc(CN/C=C2\C(=O)NC(=O)c3ccc(Br)cc32)cc1 [Example 322, N-[4-({[(Z)-(6-Bromo-1,3-dioxo-2,3-dihydroisoquinolin-4(1H)-ylidene)methyl]amino}methyl)phenyl]acrylamide] | > 50 |  |  | > 50 |  | 7.8 |  |  |  |  | IC50 (HCT-116; Homo sapiens, HCT-116, 72 h): 0.25 µM; IC50 (MCF-7; Homo sapiens, MCF7, 72 h): 0.24 µM; IC50 (BT474; Homo sapiens, BT-474, 144 h): 0.11 µM; IC50 (LoVo; Homo sapiens, LoVo, 72 h): 0.24 µM |
| CCN(CC)CCCCN/C=C1\C(=O)NC(=O)c2ccc(Br)cc21 [Example 308, (Z)-6-Bromo-4-((4-(diethylamino)butylamino)methylene)isoquinoline-1,3(2H,4H)-dione] | > 50 |  |  | 2.6 |  | > 50 |  |  |  |  | IC50 (HCT-116; [11]): 21 µM; IC50 (MCF-7; [12]): 23 µM; IC50 (BT474; [13]): 23 µM; IC50 (LoVo; [14]): 16 µM |
| (4Z)-6-Piperidin-1-yl-4-({[4-(methylPiperzin-1-yl)phenyl]amino}methylene)isoquinoline-1,3(2H,4H)-dione [Example 119] | > 50 |  |  | 1.62 |  | > 50 |  |  |  |  | IC50 (HCT-116; HCT116 cells, SRB, three days): 3.3 µM; IC50 (MCF-7; MCF-7 cells, SRB, three days): 6.2 µM; IC50 (BT474; BT474 cells, SRB, 6 days): 7.5 µM; IC50 (LoVo; LoVo cells, SRB, three days): 7.3 µM |
| C[C@@H]1CN(c2ccc(N/C=C3\C(=O)NC(=O)c4ccc(-c5ccc(F)cc5)cc43)cc2)C[C@H](C)N1 [Example 205, (4Z)-4-({[4-(3,5-Dimethylpiperazin-1-yl)phenyl]amino}methylene)-6-(4-fluorophenyl)-isoquinoline-1,3(2H,4H)-dione] | 31 |  |  | 0.44 |  | 48.6 |  |  |  |  | IC50 (HCT-116; [11]): 1.1 µM; IC50 (MCF-7; [12]): 1.5 µM; IC50 (BT474; [13]): 2.4 µM; IC50 (LoVo; [14]): 3.1 µM |
| C=CC(=O)Nc1cnc(CN/C=C2\C(=O)NC(=O)c3ccc(I)cc32)cc1O [Example 428, N-(4-Hydroxy-6-{[(6-iodo-1,3-dioxo-2,3-dihydro-1H-isoquinolin-4-ylidenemethyl)-amino]-methyl}-pyridin-3-yl)-acrylamide] | 6.4 | 0.77 | 1.67 | 0.13 | 0.07 | 0.7 | 0.65 |  |  |  |  |
| O=C1NC(=O)c2ccc(N3CCCC3)cc2/C1=C/NCc1ccc(O)c(O)c1 [Example 609, 4-[(3,4-Dihydroxy-benzylamino)-methylene]-6-pyrrolidin-1-yl-4H-isoquinoline-1,3-dione] |  | 30.6 | 13.6 |  | 18.3 |  | 19.1 | 11.8 | 0.02 | 12.1 |  |
| COCC1CCN(c2ccc(N/C=C3\C(=O)NC(=O)c4ccc(I)cc43)cc2)CC1 [Example 435, (4Z)-6-Iodo-4-[({4-[4-(methoxymethyl)piperidin-1-yl]phenyl}amino)methylene]isoquinoline-1,3(2H,4H)-dione] | > 50 | 3.2 | 26 | 4.6 | 8.5 | 38.8 | 5.2 |  |  |  |  |
| CC1(C)Oc2cc(CN/C=C3\C(=O)NC(=O)c4ccc(Br)cc43)cc(OC(=O)C3CC3)c2O1 [Example 269, 6-({[(Z)-(6-Bromo-1,3-dioxo-2,3-dihydroisoquinolin-4(1H)-ylidene)methyl]amino}methyl)-2,2-dimethyl-1,3-benzodioxol-4-yl cyclopropanecarboxylate] | 1.9 |  |  | > 50 |  | 24.7 |  |  |  |  | IC50 (HCT-116; [11]): 25 µM; IC50 (MCF-7; [12]): 29 µM; IC50 (BT474; [13]): 43 µM; IC50 (LoVo; [14]): 41 µM |
| CCN(CC)c1ccc2c(c1)C(=CNCc1ccc(O)c(O)c1)C(=O)NC2=O [Example 608, 6-Diethylamino-4-[(3,4-dihydroxy-benzylamino)-methylene]-4H-isoquinoline-1,3-dione] |  | 11.4 | 10.7 |  | 11.6 |  | 10.4 | 18.9 | 0.2 | 6.7 |  |
| NS(=O)(=O)c1ccc(CNC=C2C(=O)NC(=O)c3ccc(-c4ccc[nH]4)cc32)cc1 [Example 638, 4-({[1,3-Dioxo-6-(1H-pyrrol-2-yl)-2,3-dihydro-1H-isoquinolin-4-ylidenemethyl]-amino}-methyl)-benzenesulfonamide] |  | > 50 | > 50 |  | 35.9 |  | > 50 | 17.3 | 0.05 | 6 |  |
| NS(=O)(=O)c1ccc(CNC=C2C(=O)NC(=O)c3ccc(-c4ccccc4F)cc32)cc1 [Example 740, 4-({[6-(2-Fluoro-phenyl)-1,3-dioxo-2,3-dihydro-1H-isoquinolin-4-ylidenemethyl]-amino}-methyl)-benzenesulfonamide] |  | 7.7 | 8.3 |  | 9.7 |  | 10 | 13.5 | 1.81 | 3.7 |  |
| O=C1NC(=O)c2ccc(-c3ccc(CO)cc3)cc2C1=CNCc1ccc(O)c(O)c1 [Example 817, 4-[(3,4-Dihydroxy-benzylamino)-methylene]-6-(4-hydroxymethyl-phenyl)-4H-isoquinoline-1,3-dione] |  | 46.9 | 24.9 |  | 16.2 |  | 34.9 | 7 | 0.04 | 7 |  |
| CC(C)C(=O)Nc1ccc(CN/C=C2\C(=O)NC(=O)c3ccc(I)cc32)cc1O [Example 335, N-[2-Hydroxy-4-({[(Z)-(6-iodo-1,3-dioxo-2,3-dihydroisoquinolin-4(1H)-ylidene)methyl]amino}methyl)phenyl]-2-methylpropanamide] | > 50 |  |  | 0.02 |  | 1.4 |  |  |  |  | IC50 (HCT-116; [11]): 5 µM; IC50 (MCF-7; [12]): 5.9 µM; IC50 (BT474; [13]): 5.1 µM; IC50 (LoVo; [14]): 4.5 µM |
